Measurements taken from publication PMC10501326, “A Phase I Study of the Pan-Notch Inhibitor CB-103 for Patients with Advanced Adenoid Cystic Carcinoma and Other Tumors” (Cancer Research Communications, 2023).

What was measured:
[1] = tested on: myeloma cell lines; set-up: method as in PMID 21159606; details: cited from earlier work
[2] = advanced ACC population; cited from earlier work
[3] = tested on: NOTCH-mutated advanced ACC; details: 77 patients, cited from earlier work
[4] = Phase I/II safety and tolerability: DLTs and treatment-related adverse events (CTCAE v4.03); format: in vivo; details: added to CB-103; one patient
From the text: The study was an open-label, nonrandomized, phase I/II dose-escalation study with planned expansion cohorts. […] Part B was a potential expansion phase at the MTD/RP2D to determine preliminary evidence of antitumor activity and to confirm safety among patients stratified by preselected cancer indications.
Part A was based on a two-parameter Bayesian logistic regression model (BLRM) to investigate safety and tolerability of sequentially enrolled dose cohorts of 3–6 patients. The first 2 participants of each cohort were enrolled in a staggered approach with at least 1 day apart between first dosing.
(§1) 12-lead electrocardiograms and Holter safety monitoring with periodic cardiac imaging was employed. Efficacy assessments used RECIST v1.1 applied to CT/MRI scans performed at screening and every 8 weeks; or evaluated complete remission with complete hematologic recovery by National Comprehensive Cancer Network guideline criteria for T-ALL/T-LBL. Adherence to study drug administration was evaluated using both patient diaries and capsule counts.
Secondary endpoints included assessment of clinical benefit rate [CBR; defined as achieving complete and/or partial response and/or stable disease (SD) at prespecified benchmarks], duration of response, progression-free survival (PFS) and overall survival (OS), and plasma pharmacokinetics.
The SS was the primary population for all safety and efficacy analyses, except for determination of dose-DLT relationship.
Under this model, and accounting for dropouts and some additional patients enrolled to each cohort, approximately 55 patients were anticipated to enroll in dose escalation and approximately 45 patients in the confirmatory phase. […] All statistical analyses were analyzed using SAS v9.4 software.

[5] = tested on: advanced solid tumors, adenoid cystic carcinoma (ACC); assay: Antitumor efficacy and survival (RECIST v1.1 response, CBR, PFS, OS); format: in vivo, human
From the text: The study enrolled adults with histologically confirmed, locally advanced and/or metastatic solid tumors who had progressed on at least one line of prior systemic therapy (except for ACC) and relapsed/refractory T-ALL/LBL for whom no standard therapy was available. In dose escalation, participants with solid tumors with known or frequent Notch pathway–activating mutations were eligible (breast cancer, gastrointestinal tumors, hepatocellular carcinoma, osteosarcoma, malignant glomus tumor, and ACC), while the confirmatory cohort planned to enroll participants with selected tumor types (including T-ALL/LBL) and confirmed Notch pathway activation. Key eligibility criteria included patients ≥18 years of age with evaluable disease, Eastern Cooperative Oncology Group (ECOG) performance status 0–1, able to swallow capsules, and adequate organ function. Participants were excluded if they had clinically significant cardiac disease or thromboembolic events within the preceding 6 months, and drugs prolonging the QTc were avoided. A complete list of eligibility criteria is outlined in the Supplementary Materials and Methods.
as §1, with “Safety was assessed via monitoring of DLTs during the first treatment cycle, and of AEs, physical exam, and clinical lab results (hematology, coagulation, blood chemistry, urinalysis, and cardiac markers) throughout the study (Supplementary Table S1). 12-lead” for “12-lead”
The primary endpoint for dose escalation was the number of patients experiencing DLT during the first 28-day cycle of CB-103 and for the confirmatory phase, the incidence rate, severity, and relationship of AEs to CB-103. Secondary endpoints included assessment of clinical benefit rate [CBR; defined as achieving complete and/or partial response and/or stable disease (SD) at prespecified benchmarks], duration of response, progression-free survival (PFS) and overall survival (OS), and plasma pharmacokinetics.
The objective of the BLRM design ([10]) was to determine the MTD defined as the highest dose with less than 25% risk of the true DLT rate being above 33%. The MTD was considered reached if one of the following criteria was fulfilled: (i) if the posterior probability of the true DLT rate in the target interval (16%–33%) of the MTD was >50%, and (ii) at least 6 patients were treated at the MTD. Under this model, and accounting for dropouts and some additional patients enrolled to each cohort, approximately 55 patients were anticipated to enroll in dose escalation and approximately 45 patients in the confirmatory phase. Data were reported using 95% confidence intervals (CI) and survival endpoints (PFS, OS) are reported from the time of first treatment to the first of progression or death summarized by Kaplan–Meier estimates. All statistical analyses were analyzed using SAS v9.4 software.

In the case of `CN(C)CC[C@H](CSc1ccccc1)Nc1ccc(S(=O)(=O)NC(=O)c2ccc(N3CCN(Cc4ccccc4-c4ccc(Cl)cc4)CC3)cc2)cc1[N+](=O)[O-]` [ABT-737], the “Effect of combining with a GSI” value [1] is given as “synergism”.

For `CNC(=O)c1ccccc1Sc1ccc2c(/C=C/c3ccccn3)n[nH]c2c1` [axitinib], the “Discontinuation rates for toxicity” value [2] is given as no less than 20%.

For `CN1C(=O)[C@@H](NC(=O)[C@H](CCC(F)(F)F)[C@H](CCC(F)(F)F)C(N)=O)N=C(c2ccccc2)c2ccccc21` [AL101], the Disease control rate ([3]; benchmark not reported) is listed as 69%, the Partial response rate [3] is listed as 12% and the “Patients exhibiting SD” value [3] is listed as 57%.

For `CC1(C)CCC(CN2CCN(c3ccc(C(=O)NS(=O)(=O)c4ccc(NCC5CCOCC5)c([N+](=O)[O-])c4)c(Oc4cnc5[nH]ccc5c4)c3)CC2)=C(c2ccc(Cl)cc2)C1` [Venetoclax, reference compound], the Tolerance in combination [4] was “good tolerance”, the “Effect of off-label addition to CB-103 after first progression” value ([5]; 1 patient with NOTCH1-activating metastatic ACC and tumor BCL2 overexpression) was “additional tumor growth stabilization” and the “Further disease stabilization, additional time” value ([5]; off-label, added to CB-103 upon signs of disease progression, one patient, NOTCH1-activated metastatic ACC, BCL2 overexpression) was 3.5 months.
